Source: ChEMBL document CHEMBL5321265, “Polyketides with Anti-Inflammatory Activity from Trichoderma koningiopsis, a Rhizosphere Fungus from the Medicinal Plant Polygonum paleaceum” (J Nat Prod, 2023)

Key:
BV-2 [1] = assay: Anti-inflammatory activity against LPS-induced mouse BV-2 cells assessed as increase in cell viability preincubated with compound for 1 hrs followed by LPS stimulation and measured after 24 hrs by CCK-8 method; type: functional, cell-based; conditions: dose 2.5-20 µM, time 25.0 hrs
BV-2 [2] = assay: Anti-inflammatory activity in mouse BV-2 cells assessed as inhibition of LPS-induced NO production preincubated with compound for 1 hrs followed by LPS stimulation and measured after 24 hrs by Griess reagent based assay; type: functional, cell-based

| SMILES | Activity (BV-2 [1]) | IC50 (BV-2 [2]) [µM] |
| --- | --- | --- |
| CCCCCC[C@H]1O[C@]23O[C@H]1CC[C@@H]2C(=O)CC[C@H]3O | Dose-Dependent Effect | 3 |
| CCCCCC[C@@H]1O[C@@]23CC[C@@H](O)C(=O)[C@H]2CC[C@@H]1O3 | Dose-Dependent Effect | 14 |
| CCCCCC[C@@H]1O[C@]23O[C@H]1CC=C2C(=O)CC[C@H]3O | Dose-Dependent Effect | 8.9 |
